Key:
P2X7 [1] = molecular target: T1, P2X7 (Homo sapiens, UniProt Q99572); experiment: Pore permeation assay (YO PRO dye uptake, BzATP-induced); assay type: cell-based; set-up: expressed in transfected cells; host or cells: HEK293; conditions: HEK293 transfected with human P2X7 receptor, BzATP 10 uM, read-out: hP2X7 IC50
T1 sequence (Q99572 1-595): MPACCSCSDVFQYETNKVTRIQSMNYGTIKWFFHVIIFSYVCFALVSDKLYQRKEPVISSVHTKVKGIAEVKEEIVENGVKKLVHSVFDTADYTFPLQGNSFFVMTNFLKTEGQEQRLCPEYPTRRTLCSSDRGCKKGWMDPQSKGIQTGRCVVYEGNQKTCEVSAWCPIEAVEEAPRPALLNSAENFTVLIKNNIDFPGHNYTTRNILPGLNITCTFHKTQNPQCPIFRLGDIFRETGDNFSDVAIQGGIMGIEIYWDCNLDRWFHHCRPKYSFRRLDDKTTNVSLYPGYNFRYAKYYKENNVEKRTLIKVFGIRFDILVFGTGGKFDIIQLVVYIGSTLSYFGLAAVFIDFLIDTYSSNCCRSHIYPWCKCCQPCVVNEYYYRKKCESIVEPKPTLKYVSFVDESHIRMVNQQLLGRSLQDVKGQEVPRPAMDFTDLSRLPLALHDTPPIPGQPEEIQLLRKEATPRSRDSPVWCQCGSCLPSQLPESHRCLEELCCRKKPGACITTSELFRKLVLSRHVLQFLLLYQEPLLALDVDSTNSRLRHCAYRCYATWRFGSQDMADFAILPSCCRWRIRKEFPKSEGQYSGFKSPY
Protocol: Agonist-induced pore formation was determined by measuring cellular uptake of YO PRO fluorescence dye in HEK293 transfected with human P2X7 receptor. A HEK293 cell over expressing human P2X7 was harvested using HQTase reagent to detach the cells from T75 cm flask. The harvested cells are centrifuged @1200 rpm for 5 min at room temperature. The viability of cells was determined by Trypan blue dye and the cells are plated @10,000 cell/well in 50 ul volume in a 384W BD Poly lysine coated plate and incubated overnight at 37 C. After overnight incubation, the culture medium was replaced with 35 ul/well assay buffer (5 mM KCl, 0.1 mM CaCl2, 5 mM Glucose, 10 mM HEPES buffer pH7.4 containing 125 mM NaCl. The serial dilution of compounds was performed using Bravo liquid handling instrument and the compounds were added using Bravo to the cell assay plate starting at 2.5 uM with three dilutions for 10 points. The positive control inhibitor compound was added to column 23. The plate was shaken slowly on a plate shaker for 10 seconds. The cells were incubated with the compound for 20 minutes at room temperature. After the incubation period, YO PRO dye (1 uM) along with BzATP (10 uM) were added to cells at 10 ul/well. The plate was centrifuged at 1000 rpm for 5 seconds and incubated at room temperature for 30 minutes. The uptake of YO PRO dye into the cells was measured using Envision Fluorescence plate reader instrument (Perkin Elmer).

P2X7 [2] = molecular target: T1, P2X7; experiment: IL-1β release assay in THP-1 cells (sandwich ELISA, BzATP-stimulated); assay type: cell-based; set-up: endogenous in cells; host or cells: THP-1 cells (PMA-differentiated, LPS-primed); conditions: LPS primed, 0.8 mM BzATP, mature IL-1β release, read-out: hTHP-1/IL-ib IC50
Protocol: IL-1β release assay: The activation of P2X7 by ATP leads to a fast transient activation of cells resulting in influx of Ca^2+ followed by conversion of pro-IL-1β to active IL-1β. The functional activity of P2X7 compounds was measured by the release of mature IL-1β in the culture medium of THP-1 cells, detected by sandwich ELISA. Cells were maintained in complete growth medium (RPMI 1640+10% HI-FCS+2 mM L-glutamine+1× PS). […] THP-1 cells were harvested from the flask in 50 ml by centrifugation for 3 min at 100 g. The cells were resuspended to 2×10^5 cells/ml in medium supplemented with 0.5 μM PMA and incubated. The cells were washed and resuspended to 1.5×10^5 cells/ml in medium complemented with 10 ng/ml LPS, and the cells were primed for 4 h at 37° C., 5% CO2. After addition of 20 μL of prediluted test compounds, blank, standard and control reagents, cells were incubated for a further 20 min at 37° C. and stimulated with 0.8 mM BzATP for 30 minutes. The cells were centrifuged, supernatant was collected and the presence of mature IL-1β was detected using Dual human IL-1b kit following manufacturer's instruction. The tetrahydrobenzodiazepine analogs effectively modulated the activity of P2X7 in the cells as measured by the levels of pro-inflammatory cytokine IL-1β, which is released by the activation of P2X7 receptor.

| Compound | IC50 (P2X7 [1]) [nM] | IC50 (P2X7 [2]) [nM] |
| --- | --- | --- |
| O=C(NCC1CCC(F)(F)CC1)c1cc(I)n2cccc(Cl)c12 [Compound 9] | 101 to 500 | 101 to 500 |
| O=C(NCC1CCCCC1)c1cc(CCO)n2cccc(Cl)c12 [Compound 15, 8-chloro-N-(cyclohexylmethyl)-3-(2-hydroxyethyl)indolizine-1-carboxamide] | 101 to 500 | 101 to 500 |
| (S)-8-chloro-N-((4,4-difluoro-1-hydroxycyclohexyl)methyl)-3-((tetrahydrofuran-3-yl)methyl)indolizine-1-carboxamide [Compound 52] | 10 to 100 | 10 to 100 |
| COCCc1cc(C(=O)NCC2CCCCC2)c2c(Cl)cccn12 [Compound 8, 8-chloro-N-(cyclohexylmethyl)-3-(2-methoxyethyl)-indolizine-1-carboxamide] | 10 to 100 | 101 to 500 |
| COCCc1cc(C(=O)NCC2(O)CCCC(F)(F)C2)c2c(C)cccn12 (centres unmarked) [Compound 57, 3-(2-Methoxy-ethyl)-8-methyl-indolizine-1-carboxylic Acid (3,3-difluoro-1-hydroxy-cyclohexylmethyl)-amide] | 101 to 500 | 101 to 500 |
| [2H]C([2H])([2H])OCCc1cc(C(=O)NCC2CCC(F)(F)CC2)c2c(Cl)cccn12 [Compound 72] | 10 to 100 | 10 to 100 |
| COCCc1cc(C(=O)NC[C@@]2(O)CCC[C@@H](C)C2)c2c(C)cccn12 [Compound 16, 3-(2-Methoxy-ethyl)-8-methyl-indolizine-1-carboxylic Acid ((1R,3R)-1-hydroxy-3-methylcyclohexylmethyl)-amide] | 10 to 100 | 101 to 500 |
| COCCc1cc(C(=O)NC[C@]2(O)CCCC(F)(F)C2)c2c(Cl)cccn12 [Compound 64, 8-Chloro-3-(2-methoxy-ethyl)-indolizine-1-carboxylic Acid ((S)-3,3-difluoro-1-hydroxy-cyclohexylmethyl)-amide] | 10 to 100 | 101 to 500 |
| COCCc1cc(C(=O)NCC2CCCCCC2)c2c(Cl)cccn12 [Compound 1, 8-chloro-N-(cycloheptylmethyl)-3-(2-methoxyethyl)indolizine-1-Carboxamide] | 10 to 100 | 101 to 500 |
| CCOCCc1cc(C(=O)NCC2(O)CCC(F)(F)CC2)c2c(Cl)cccn12 [Compound 69, 8-Chloro-3-(2-ethoxy-ethyl)-indolizine-1-carboxylic Acid (4,4-difluoro-1-hydroxy-cyclohexylmethyl)-amide] | 101 to 500 | 101 to 500 |
| O=C(NC[C@@]1(O)CCCC(F)(F)C1)c1cc(C2CCOC2)n2cccc(Cl)c12 (stereo partly drawn) [Compound 66, 8-chloro-N—(((R)-3,3-difluoro-1-hydroxycyclohexyl)methyl)-3-(tetrahydrofuran-3-yl)indolizine-1-carboxamide] | 10 to 100 | 101 to 500 |
| O=C(NCC1CCC(F)(F)CC1)c1cc(C2CCC2)n2cccc(Cl)c12 [Compound 5, 8-chloro-3-cyclobutyl-N-((4,4-difluorocyclohexyl)methyl)indolizine-1-carboxamide] | 10 to 100 | 101 to 500 |

Further lines, results first:

| IC50 (P2X7 [1]) [nM] | IC50 (P2X7 [2]) [nM] | Compound |
| --- | --- | --- |
| 10 to 100 | 10 to 100 | COCCc1cc(C(=O)NCC2CCCC(F)(F)C2)c2c(Cl)cccn12 (centres unmarked) [Compound 31, 8-chloro-N-((3,3-difluorocyclohexyl)methyl)-3-(2-methoxyethyl)indolizine-1-carboxamide] |
| 10 to 100 | 101 to 500 | O=C(NCC1CCC(F)(F)CC1)c1cc(CCO)n2cccc(Cl)c12 [Compound 51, 8-chloro-N-((4,4-difluorocyclohexyl)methyl)-3-(2-hydroxyethyl)indolizine-1-carboxamide] |
| 10 to 100 | 101 to 500 | COCCc1cc(C(=O)NCC2(O)CCC(F)(F)C(C)C2)c2c(Cl)cccn12 (centres unmarked) [Compound 43, 8-chloro-N-((4,4-difluoro-1-hydroxy-3-methylcyclohexyl)methyl)-3-(2-methoxyethyl)indolizine-1-carboxamide] |
| 10 to 100 | 10 to 100 | CCOCCc1cc(C(=O)NCC2(O)CCCC(F)(F)C2)c2c(Cl)cccn12 (centres unmarked) [Compound 70, 8-Chloro-3-(2-ethoxy-ethyl)-indolizine-1-carboxylic Acid (3,3-difluoro-1-hydroxy-cyclohexylmethyl)-amide] |
| < 10 | < 10 | COCCc1cc(C(=O)NCC2(O)CCCC(F)(F)C2)c2c(Cl)cccn12 (stereo in doubt) [Compound 63, 8-Chloro-3-(2-methoxy-ethyl)-indolizine-1-carboxylic Acid ((S)-3,3-difluoro-1-hydroxy-cyclohexylmethyl)-amide] |
| 10 to 100 | 10 to 100 | COCCc1cc(C(=O)NCC2(O)CCCC(C)(C)C2)c2c(Cl)cccn12 (centres unmarked) [Compound 10, 8-chloro-N-((1-hydroxy-3,3-dimethylcyclohexyl)methyl)-3-(2-methoxyethyl) indolizine-1-carboxamide] |
| 10 to 100 | 101 to 500 | O=C(NCC1CCC(F)(F)CC1)c1cc(CC2CCOC2)n2cccc(Cl)c12 (centres unmarked) [Compound 30, 8-chloro-N-((4,4-difluorocyclo-hexyl)methyl)-3-((tetrahydrofuran-3-yl)methyl)indolizine-1-carboxamide] |
| < 10 | 10 to 100 | CC1CC(CNC(=O)c2cc(CCO)n3cccc(Cl)c23)CCC1(F)F (centres unmarked) [Compound 32, 8-chloro-N-((4,4-difluoro-3-methylcyclohexyl)methyl)-3-(2-hydroxyethyl) indolizine-1-carboxamide] |
| 10 to 100 | 10 to 100 | COCCc1cc(C(=O)NCC2(O)CCCCCC2)c2c(Cl)cccn12 [Compound 35, 8-chloro-N-((1-hydroxycycloheptyl)methyl)-3-(2-methoxyethyl)indolizine-1-carboxamide] |
| 10 to 100 | 10 to 100 | O=C(NCC1(O)CCCC(F)(F)C1)c1cc(C2CCOC2)n2cccc(Cl)c12 (centres unmarked) [Compound 65, 8-Chloro-3-(tetrahydro-furan-3-yl)-indolizine-1-carboxylic Acid (3,3-difluoro-1-hydroxycyclohexyl methyl)-amide] |
| 10 to 100 | 10 to 100 | O=C(NCC1(O)CCC(F)(F)CC1)c1cc(CC2CCOC2)n2cccc(Cl)c12 (centres unmarked) [Compound 47, 8-chloro-N-((4,4-difluoro-1-hydroxycyclohexyl)methyl)-3-((tetrahydrofuran-3-yl)methyl)indolizine-1-carboxamide] |
| < 10 | 10 to 100 | COCCc1cc(C(=O)NCC2CCC(F)(F)C(C)C2)c2c(Cl)cccn12 (centres unmarked) [Compound 11, 8-chloro-N-((4,4-difluoro-3-methylcyclohexyl)methyl)-3-(2-methoxyethyl) indolizine-1-carboxamide] |
| < 10 | 10 to 100 | O=C(NCC1(O)CCCC(F)(F)C1)c1cc(C2CCCO2)n2cccc(Cl)c12 (centres unmarked) [Compound 54, 8-Chloro-3-(tetrahydro-furan-2-yl)-indolizine-1-carboxylic Acid (3,3-difluoro-1-hydroxycyclohexyl methyl)-amide] |

From patent publication US9931324B2, “Indolizine derivatives and their use in neurodegenerative diseases” (Merck Patent GmbH, priority 2014, dated 2018)
